Source: patent US20120028917A1, “Use Of N-(4-((3-(2-Amino-4-Pyrimidinyl)-2-Pyridinyl)Oxy)Phenyl)-4-(4-Methyl-2-Thienyl)-1-Phthalazinamine In The Treatment Of Antimitotic Agent Resistant Cancer” (Amgen Inc., priority 2009, published 2012)
Several values for one entry are separate records, joined by “and”; a condition that tells them apart may be missing. Equal entries are not always repeated.

Experiments:
[1] = tested on: MES-SA Dx5; experiment: p-Histone H3 assay (ArrayScan VTi); format: cell-based; conditions: Homo sapiens, 24 h; MES-SA Dx5, Uterine, Doxorubicin-selected, P-gp overexpressing
Method: (§1) MES-SA Dx5 and MES-SA cells were plated at a density of 10,000 cells/well onto 96-well plate in complete media and cultured for 24 hours. […] Cells were washed and fixed by adding 100 μL of 2× formaldehyde fixation buffer for 10 minutes and room temperature. […] Cells were immunostained with p-histone H3 antibody (5 μg/mL) and incubated at room temperature for 2 hours. Cells were washed in 100 μL of wash buffer. Next, cells were incubated with a goat anti-rabbit alexa-488 conjugated antibody (1.5 μg/mL) in wash buffer supplemented with Hoechest DNA dye (1 μg/mL) and incubated at room temperature in the dark for 30 minutes. Cells were washed twice with 100 μL of wash buffer. The 96-well plates were analyzed on an ArrayScan VTi (Cellomics) using a bioapplication algorithm (TargetActivation.V2). […] Cells were then fixed and stained with p-histone H3 antibody and counterstained with a DNA dye (Hoechest). Imaging-based analysis (ArrayScan VTi) was performed to measure the percentage of p-histone H3 positive cells. The dose-response curves represent either AMG 900 or taxol concentrations plotted against p-Histone H3 positive cells as a percentage of DMSO-treated control (POC). The EC50 values were calculated by 4-parameter fit model.

[2] = tested on: MES-SA; experiment: p-Histone H3 assay (ArrayScan VTi); format: cell-based; conditions: Homo sapiens, 24 h, Uterine, Parent line
Method: as §1

[3] = tested on: MDA-MB-231-Taxol-r; experiment: Cell cycle DNA content assay (flow cytometry); format: cell-based; conditions: Homo sapiens, 24 h, Breast, Paclitaxel-selected, read-out: EC50 @ 24 hours, Sub G1
Method: (§2) MDA-MB-231(F11)-luc parent and taxol-resistant cells were seeded at a density of 250,000 cells/well in a 12-well plate in 1 mL of in the appropriate media, in duplicates. The next day cells were treated with AMG 900 or taxol over a 10-point concentration range with a final DMSO concentration of 0.1% in taxol-free media. After 24 hours, cells were harvested with 1× trypsin-EDTA and transferred to PCR tubes. Cells were centrifuged at 2000 rpm for 4 minutes and the supernatant was aspirated. Cells were fixed in 200 μL of ice cold 90% methanol and stored at −20° C. for at least 24 hours. Fixed cells were centrifuged at 2000 rpm for 4 minutes to remove 90% methanol. Cells were washed with wash buffer and stained with 200 μL of propidium iodide (PI) for 30 minutes at 4° C. in the dark. An additional 400 μL of PI was added before data acquisition. Data was acquired and analyzed by flow cytometry (LSRII). A threshold gate was applied according to +4N (same as ≧4N) DNA content based on DMSO control and low/high drug-treated groups. The data was represented as percentage of control for +4N DNA content positive populations. The +4N DNA content cellular EC50 values were assigned using 4-parameter equation. […] Flow cytometric-based cell cycle analysis was performed to measure the percentage of ≧4N DNA content or SubG1 DNA content positive cells. The dose-response curves for AMG 900 represent the drug concentration plotted against the percentage of ≧4N DNA content positive cells. The dose-response curves for taxol represent the drug concentration plotted against the percentage of SubG1 DNA content positive cells. The EC50 values were calculated by 4-parameter fit model.

[4] = tested on: MDA-MB-231; experiment: Cell cycle DNA content assay (flow cytometry); format: cell-based; conditions: Homo sapiens, 24 h; MDA-MB-231, Breast, Parent line; read-out: EC50 @ 24 hours, Sub G1
Method: as §2

[5] = tested on: NCI-H460-Taxol-r; experiment: Cell cycle DNA content assay (flow cytometry); format: cell-based; conditions: Homo sapiens, 24 h, Lung, Paclitaxel-selected, read-out: EC50 @ 24 hours, Sub G1
Method: (§3) NCI-H460 parental and NCI-H460 taxol-resistant cells were seeded at a density of 500,000 cells/well in a 6-well plate in 2 mL of appropriate complete media. The next day cells were treated with AMG 900 or taxol over a 6-point concentration range with a final DMSO concentration of 0.05% in media. After 24 hours, cells were pulsed with BrdU (1:100 dilution) and harvested. Cells were centrifuged at 1600 rpm for 4 minutes and the supernatant was aspirated. Cells were washed in 1× PBS and fixed in 900 μL of ice cold 90% methanol and stored at −20° C. Fixed cells were centrifuged at 2000 rpm for 4 minutes to remove 90% methanol. Cells were washed with 200 μL of wash buffer and stained with 200 μL of propidium iodide (PI) overnight at 4° C. in the dark. Data was acquired and analyzed by flow cytomety (LSRII). A threshold gate was applied according to +4N (same as ≧4N) DNA content and SubG1 positive populations based on DMSO-treated control and low/high drug-treated groups. The data was represented as a percentage of +4N DNA and SubG1 positive subpopulations. The +4N (same as ≧4N) DNA content or SubG1 cellular EC50 values were calculated using a 4-parameter equation. Lung tumor cell lines were treated with control (DMSO), AMG 900 or taxol over a 6-point dose range for 24 hours. Flow cytometric-based cell cycle analysis was performed to measure the percentage of ≧4N DNA content or SubG1 DNA content positive cells. The dose-response curves for AMG 900 represent the drug concentration plotted against the percentage of ≧4N DNA content positive cells. The dose-response curves for taxol represent the drug concentration plotted against the percentage of SubG1 DNA content positive cells. The EC50 values were calculated by 4-parameter fit model.

[6] = tested on: NCI-H460; experiment: Cell cycle DNA content assay (flow cytometry); format: cell-based; conditions: Homo sapiens, 24 h; NCI-H460, Lung, Parent line; read-out: EC50 @ 24 hours, Sub G1
Method: as §3

[7] = tested on: NCI-H460-taxol resistant tumor xenografts; experiment: Growth of established NCI-H460-taxol resistant xenografts (Example 4); format: in vivo, athymic nude mice; conditions: 12.5mpk IP QD 5 days/week × 2 wks
Method: To investigate whether AMG 900-induced suppression of aurora kinase activity inhibits cell proliferation, the antitumor efficacy of AMG 900 was evaluated in vivo against NCI-H460-taxol resistant tumor xenografts in athymic nude mice. Mice were dosed PO with AMG 900 (BID) either intermittently or continuously. Mice were dosed IP with paclitaxel (taxol) 5 days/week. An internal Amgen compound was used as a positive control in this study (data not shown). Tumors were measured twice per week. Treatment began on day 12 when the tumors were established. All groups were provided nutritional supplements on a daily basis throughout the study to maintain body weight. AMG 900 (free base) was formulated into suspension to concentrations of 1.5 and 0.3 mg/mL. […] The duration of the dosing phase for AMG 900 was three weeks, and two weeks for the taxol group. The tumors were measured with a digital caliper and the mice were weighed twice per week. Tumor volumes were calculated as follows: […] Tumor inhibition was calculated as follows: […] FIG. 5 illustrates the effects of AMG 900 and Taxol treatment on the growth of established H460-taxol resistant tumors. […] Tumors were measured twice per week. Treatment began 12 days after tumor implantation (arrow) when tumors were approximately 170 mm^3. Mice were dosed PO or IP once or twice daily for 3 weeks. Data represent mean ±SE for each group. *P values (not shown) correspond to statistical difference between groups treated with vehicle and AMG 900 or Taxol analyzed with repeated measure Sheffe's ANOVA over time using […]. The scheduled days listed in the legend represent days/ week. All groups were provided nutritional supplements throughout the study.

[8] = tested on: HCT116 AZD1152-resistant; experiment: Colony formation assay (FIG. 6-B); format: cell-based, human; conditions: both HCT116 cell lines (parental and AZD1152-resistant) compared
Method: Tumor cell lines were obtained from the American Type Culture Collection (ATCC) unless otherwise specified. The MDA-MB-231-PTX and NCI-H460-PTX cell lines were established by growing the cells in the presence of increasing concentrations of paclitaxel over a period of 6 months. The HCT116 AZD1152-resistant cell line was established by growing the cells in the presence of AZD1152 at 80 nmol/L. Tumor cells were treated with AMG 900, paclitaxel or AZD1152 (0.5, 5, 50 nmol/L) for 48 hours, washed twice with complete media, and cells were re-plated at a density of 5000 cells per well in drug-free complete media. Cells were grown until the DMSO control wells were confluent. Cells were stained with crystal violet dye (Sigma), washed with distilled water, and imaged using a digital scanner (Hewlett-Packard). Colony formation assay was performed with HCT116 cell lines (parental and AZD1152-resistant). Cells were treated with DMSO, AMG 900, AZD1152, or paclitaxel at the indicated concentrations for 48 hours and re-plated in complete media lacking the inhibitor. After the DMSO-treated cells reached confluence, the cells were stained with crystal violet and imaged (duplicate wells).

EC50 [1]: > 1250 nM | EC50 [2]: 10 nM | EC50 [3]: 95 nM | EC50 [4]: 2 nM | EC50 [5]: > 100 nM | EC50 [6]: 10 nM
Structure (SMILES): CC(=O)O[C@H]1C(=O)[C@@]2(C)[C@H]([C@H](OC(=O)c3ccccc3)[C@]3(O)C[C@H](OC(=O)[C@H](O)[C@@H](NC(=O)c4ccccc4)c4ccccc4)C(C)=C1C3(C)C)[C@]1(OC(C)=O)CO[C@@H]1C[C@@H]2O [Paclitaxel, reference compound]
Tumor volume, Mean [7]: 1383 mm^3 | Tumor volume, Median [7]: 1072.0 mm^3 | % Inhibition (tumor growth) ([7]; listed as Taxol): 20% and 19.7% | sensitivity in colony formation [8]: equally sensitive
